US4524146A, “Certain -2-heterocycle substituted pyrazoloquinolines” (Ciba-Geigy Corporation, priority 1982, dated 1985)

Legend:
[1] = test system: benzodiazepine receptor; assay: in vivo benzodiazepine receptor binding (3H-flunitrazepam); parameters: species or system mice or rats; details: dose of about 30 mg/kg i.p.
Experimental: In vivo benzodiazepine receptor binding is determined essentially as described in Eur. J. Pharmacol. 48, 213 (1978) and Nature 275, 551 (1978).
Test compounds in a corn starch vehicle are administered orally or intraperitioneally to mice or rats. Thirty minutes later, 3H-flunitrazepam(2 nmoles/Kg in saline) is injected into the tail vein, and the animals are sacrificed 20 minutes after injection of the flunitrazepam. The brains are then assayed by determining radioactivity in a liquid scintillation counter for binding of the radioligand to the receptors. A decrease in the binding of 3H-flimotrazepam in the drug-treated animals (as compared with the binding observed in animals treated with vehicle alone) is indicative of benzodiazepine receptor binding by the test compound.

[2] = biological target: benzodiazepine receptor; assay: in vitro benzodiazepine receptor binding assay (inhibition of specific binding of 2 nM tritiated diazepam); details: membranes from rat fore-brain, 0°-5°, 30 minutes, pH7.5
Experimental: The benzodiazepine receptor binding properties indicative of the nervous system regulatory activity of said new compounds are determined in the receptor binding assay in vitro, e.g. as described in Nature 266, 732 (1977) or Proc. Nat. Acad. Sci. USA 74, 3805 (1977). Diazepam binds specifically and with high affinity to crude synaptosomal membrane preparations from rat fore-brain. This binding is inhibited by other anxiolytic compounds. When tritiated diazepem is used, the interaction of other drugs with said receptor can be readily assessed thus: membranes from rat fore-brain are incubated at 0°-5° for 30 minutes with 2 nM tritiated diazepam and various concentrations of the test substance in a buffer medium maintained at pH7.5. Solutions of the various concentrations of test substances are prepared by dilution of a 4.2 mM stock solution in dimethylacetamide-ethanol (1:10) with 50 mM pH7.5 Tris-HCl buffer. The membranes, containing the receptors with various amounts of tritiated diazepam, are filtered onto glass fiber filters, which are then analyzed in a liquid scintillation counter. The concentration of the compounds of this invention, required to inhibit the specific binding of 2 nM of tritiated diazepam by 50%, i.e. the IC50, is determined graphically.

| Compound | inhibition of flunitrazepam binding in vivo [1] | IC50 [2] [nM] |
| --- | --- | --- |
| O=c1c2c[nH]c3ccccc3c-2nn1-c1nccs1 [Example 4, 2-(2-thiazolyl)-pyrazolo[4,3-c]quinolin-3(5H)-one] | inhibits flunitrazepam binding in vivo | ~0.3 |
| O=c1c2c[nH]c3ccccc3c-2nn1-c1ncccn1 [Example 1, 2-(2-pyrimidyl)-pyrazolo[4,3-c]quinolin-3(5H)-one] | – | ~6 |
| O=c1c2c[nH]c3ccc(F)cc3c-2nn1-c1ncccn1 [Example 2, 8-fluoro-2-(2-pyrimidyl)-pyrazolo[4,3-c]quinolin-3(5H)-one] | – | ~2 |
